According to publication PMC7785352, “Antioxidant and α-Glucosidase Inhibitory Activities Guided Isolation and Identification of Components from Mango Seed Kernel” (Oxidative Medicine and Cellular Longevity, 2020):
Marks after values point to notes of the source that are not given here.

Columns and labels:
[1] = DPPH radical scavenging activity assay; details: mean ± SD; for IC50: isolated compounds, test concentrations 15.625 to 500 μM
Description: The DPPH radical scavenging activity assay was determined according to the reported method with minor modifications. Briefly, extract and four fractions were dissolved in methyl alcohol at concentrations ranging from 62.5 to 1000 μg/mL, which were prepared to mix with a methyl alcohol solution of DPPH (0.2 mM, 100 μL) on a 96-well plate. After that, shaken gently and stood at room temperature for 30 min, the optical density (OD) 517 nm in each well were determined by a microplate reader. Triplicates of each sample were run, and the mean values were calculated. Ascorbic acid was chosen as positive control. The percentage inhibition (%) for each sample was calculated by the following formula: (1) Inhibition %=1−Abssamples−Abscontrol/Absblank ×100%.
DPPH solution was replaced by a methanol solution, which was used as control, and samples were replaced by the methanol solution as the black. All the results were expressed as means ± standard deviation (SD).
The antioxidant and α-glucosidase inhibitory activities of each isolated compound at concentrations ranging from 15.625 to 500 μM (DPPH) and from 125 to 2000 μM (α-glucosidase inhibitory), respectively, were determined using the methods described in Section 2.3.

α-glucosidase = test: Inhibitory kinetic analysis (Lineweaver-Burk and Dixon plots); type: biochemical, Baker's yeast; details: substrate 0.8-5.0 mM, enzyme 1.3 U/mL; for Ki: determined by Dixon plots; for α-Glucosidase inhibitory Inhibition mode: determined by Lineweaver-Burk plots
Description: The kinetic mechanisms of active compounds 1 and 2 towards α-glucosidase were determined by the graphical views of Dixon and Lineweaver-Burk plots. The concentration ranges for the substrates were 0.8-5.0 mM. The concentration of the enzyme was kept constant at 1.3 U/mL. Lineweaver-Burk plots were established to evaluate the type of inhibition. Dixon plots were used to calculate inhibitory constant (Ki) values of the tested compounds. Each kinetic analysis was implemented in triplicate from which mean Ki values.

[2] = biological target: α-Glucosidase from Baker's yeast; test: α-Glucosidase inhibitory assay (p-NPG substrate, 96-well plate); type: biochemical; details: isolated compounds; for IC50: test concentrations 125 to 2000 μM, mean ± SD
Description: The α-glucosidase inhibitory assay was performed on a 96-well plate by using a microplate reader according to the published method with minor modifications. […] […] After 5 min incubation at 37°C, 20 μL of 4-pNPG (p-nitrophenyl-α-D-glucopyranoside) (2.5 mM) was added and incubated for 15 min; then, 80 μL of Na2CO3 (0.2 M) was added to stop the reaction. The optical density (OD) values were determined using a microplate reader at 405 nm. Triplicates of each sample were run, and the mean values were calculated. […] The IC50 was calculated by using SPSS software.

| IC50 [1] [µM] | SMILES | other results |
| --- | --- | --- |
| 52.8 ± 0.93 | O=C(O[C@@H]1O[C@H](CO)[C@@H](O)[C@H](O)[C@H]1O)c1cc(O)c(O)c(O)c1 [Compound 4, 1-O-(3,4,5-Trihydroxybenzoyl)-β-D-glucoside] |  |
| 32.3 ± 0.48 | COC(=O)c1cc(O)c(O)c(O)c1 [Compound 5, Methyl galate] | α-glucosidase inhibitory activity (in words) [2]: no inhibitory activity |
| 37.8 ± 2.52 | O=C(O)c1cc(O)c(O)c(O)c1 [Compound 6, Gallic acid] | IC50 [2]: 313 ± 3.71 µM |
| > 500 | O=C(OCC(O)CO)c1cc(O)c(O)c(O)c1 (stereo not shown) [Compound 9, 1-Glycerol gallate] | α-glucosidase inhibitory activity (in words) [2]: no inhibitory activity |
| 38 ± 1.94 | CCOC(=O)c1cc(O)c(O)c(O)c1 [Compound 10, Ethyl gallate] | α-glucosidase inhibitory activity (in words) [2]: no inhibitory activity |
| 36.91 ± 0.3 | O=C(O)/C=C/c1ccc(O)c(O)c1 [Compound 12, Caffeic acid] |  |

The remaining lines, values behind:

| SMILES | IC50 [1] [µM] | other results |
| --- | --- | --- |
| O=C1O[C@H]([C@@H](O)CO)C(O)=C1O [Ascorbic acid, reference compound] |  | DPPH assay IC50 ([1]; extract and fractions, test concentrations 62.5 to 1000 μg/mL, n = 3): 9.37 ± 0.84^e μg/mL |
| O=C(OC[C@H]1O[C@@H](OC(=O)c2cc(O)c(O)c(O)c2)[C@H](OC(=O)c2cc(O)c(O)c(O)c2)[C@@H](OC(=O)c2cc(O)c(O)c(O)c2)[C@@H]1OC(=O)c1cc(O)c(O)c(O)c1)c1cc(O)c(O)c(O)c1 [Compound 1, 1,2,3,4,6-Penta-O-galloyl-β-D-glucoside] | 2.93 ± 1.06 | Ki (α-glucosidase): 0.73295 ± 0.00022 µM; α-Glucosidase inhibitory Inhibition mode (α-glucosidase): Noncompetitive |
| O=C(OCC1OC(OC(=O)c2cc(O)c(O)c(O)c2)C(OC(=O)c2cc(O)c(O)c(O)c2)C(OC(=O)c2cc(O)c(O)c(O)c2)C1OC(=O)c1cc(O)c(O)c(O)c1)c1cc(O)c(O)c(O)c1 [Compound 2, 1,2,3,4,6-Penta-O-galloyl-α-D-glucoside] | 22.3 ± 0.74 | Ki (α-glucosidase): 0.09837 ± 0.00031 µM; α-Glucosidase inhibitory Inhibition mode (α-glucosidase): Competitive |
| O=C(OC[C@H]1O[C@@H](OC(=O)c2cc(O)c(O)c(O)c2)[C@H](OC(=O)c2cc(O)c(O)c(O)c2)[C@@H](OC(=O)c2cc(O)c(O)c(O)c2)[C@@H]1O)c1cc(O)c(O)c(O)c1 [Compound 3, 1,2,3,6-Tetra-O-galloyl-β-D-glucoside] | 23.7 ± 0.52 | IC50 [2]: 243.3 ± 1.43 µM |
| O=C(O)c1ccc(O)c(O)c1 [Compound 7, 3,4-Dihydroxybenzoic acid] | 38.2 ± 1.03 | IC50 [2]: 425 ± 31.5 µM |
| COc1cc(/C=C/C(=O)O)ccc1O [Compound 11, Ferulic acid] | 95 ± 2.41 |  |
| O=c1c(O)c(-c2ccc(O)c(O)c2)oc2cc(O)cc(O)c12 [Compound 13, Quercetin] | 60 ± 0.82 | IC50 [2]: 138 ± 7.07 µM |
| Oc1cc(O)c2c(c1)O[C@H](c1ccc(O)c(O)c1)[C@H](O)C2 [Compound 16, Epicatechin] | 40.1 ± 0.82 |  |
